In US6998479B1, “Derivatives of cyclodextrins” (priority 1998, dated 2006):

Assays:
[1] = Reaction of aminooxy-CD with 4-thiouracil followed by UV spectra; conditions: 1 mM 4-thiouracil, 0.1 M compound, 20° C., neutral pH (7.0), 1 mm path
Protocol: FIG. 1a. Time course of the UV spectra (optical path length 1 mm) of a reaction mixture containing 1 mM 4-thiouracil in 100 mM 4-aminooxy-2-butenyl-beta-cyclodextrin (I; see Example I.2) at pH 7.0. Incubation at 20° C. is indicated as hours.
FIG. 1b. Time course of the UV spectra (optical path length 1 mm) of a reaction mixture containing 1 mM 4-thiouracil and 100 mM 1-aminooxybutane at 20° C. at pH 7.00. Incubation time (hours) is indicated.
A 1 mM solution of 4-thiouracil (Lacheama, Brno, Czechoslovakia) was incubated at 20° C. within a 0.1 M solution of 4-aminooxy-2-butenyl-β-CD (I) at neutral pH. The UV-spectra were recorded at certain time intervals using cuvettes of 1 mm optical path length (FIG. 1a). This reaction was compared with the reaction of 4-thiouracil with 1-aminooxybutane under the same reaction conditions (FIG. 1b).

[2] = Reaction of aminooxy-CD with 6-mercaptopurine riboside followed by UV spectra; conditions: 1 mM 6-mercaptopurine riboside, 0.1 M compound, 20° C., pH 7.00, 1 mm path
Protocol: FIG. 2a. Time course of the UV spectra (optical path length 1 mm) of a reaction mixture containing 1 mM 6-mercaptopurineriboside with 100 mM 4-aminooxy-2-butenyl-beta-cyclodextrin (see Example I.2). Incubation time (hours) is indicated.
FIG. 2b. Time course of the UV spectra (optical path length b 1 mm) of a reaction mixture containing 1 mM 6-mercaptopurineriboside with 100 mM 1-aminooxybutane at pH 7.00. Incubation time (hours) is indicated.
A 1 mM solution of 6-mercaptopurine riboside (Sigma Chem. Co., USA) was incubated at 20° C. within 0.1 M of 4-aminooxy-2-butenyl-β-CD (I).

Substance: 4-aminooxy-2-butenyl-beta-cyclodextrin
- velocity of reaction with 4-thiouracil compared with 1-aminooxybutane [1]: significantly higher velocity of reaction
- reaction rate with 6-mercaptopurine riboside compared with 1-aminooxybutane [2]: drastically higher reaction rates
